Read-outs that look alike come from different tables or passages of the source.

Data set [1] addresses T1, AHR (Homo sapiens, UniProt P35869).
T1 sequence (P35869 11-848): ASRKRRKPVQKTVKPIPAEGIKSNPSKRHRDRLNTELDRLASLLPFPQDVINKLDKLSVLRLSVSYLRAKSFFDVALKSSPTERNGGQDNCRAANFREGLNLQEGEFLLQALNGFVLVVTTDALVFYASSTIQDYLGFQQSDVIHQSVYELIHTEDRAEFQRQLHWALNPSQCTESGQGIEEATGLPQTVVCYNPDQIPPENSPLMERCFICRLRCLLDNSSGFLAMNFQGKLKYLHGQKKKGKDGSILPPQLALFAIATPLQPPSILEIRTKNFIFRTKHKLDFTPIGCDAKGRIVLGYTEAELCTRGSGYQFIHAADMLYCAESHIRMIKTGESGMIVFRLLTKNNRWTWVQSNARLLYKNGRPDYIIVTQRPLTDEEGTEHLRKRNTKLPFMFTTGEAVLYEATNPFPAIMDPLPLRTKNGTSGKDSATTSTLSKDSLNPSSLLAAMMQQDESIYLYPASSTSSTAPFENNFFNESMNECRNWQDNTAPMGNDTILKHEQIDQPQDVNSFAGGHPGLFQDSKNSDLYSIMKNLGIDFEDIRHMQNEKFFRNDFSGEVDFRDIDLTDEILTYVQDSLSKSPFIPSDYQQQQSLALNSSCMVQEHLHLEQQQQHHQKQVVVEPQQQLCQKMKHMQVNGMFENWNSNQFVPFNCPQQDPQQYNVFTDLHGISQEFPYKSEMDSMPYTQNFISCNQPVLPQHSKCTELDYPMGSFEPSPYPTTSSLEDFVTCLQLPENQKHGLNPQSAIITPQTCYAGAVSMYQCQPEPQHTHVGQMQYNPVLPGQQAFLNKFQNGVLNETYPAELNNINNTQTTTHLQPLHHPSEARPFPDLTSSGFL
As to the kind of experiment: In vitro assay 2: agonism in human cell line (transactivation assay).
Description: Transactivation Assay in Human Cell Line (In Vitro Assays 1 and 2)
Transactivation assays were carried out in U87 glioblastoma cells (ATCC) endogenously expressing AHR. In addition the cells were stably transfected with an AHR inducible firefly luciferase reporter gene construct that carried AHR-binding sites (DRE) in its promoter and a renilla reporter gene construct with constitutively active promoter.
In Vitro Assay 2: Agonism in Human Cell Line
Cells in medium (tryptophan free RPMI, 1% FCS, 2 mM Glutamine) were grown for 20 hours in absence (negative control) or presence of increasing concentrations of test compounds (typical dilutions: 72 pmol/L, 0.25 nmol/L, 0.89 nmol/L; 3.1 nmol/L, 11 nmol/L, 38 nmol/L, 130 nmol/L, 470 nmol/L, 1.6 μmol/L, 5.7 μmol/L and 20 μmol/L in duplicates). As positive activation control cells were incubated with 300 μM kynurenic acid. Normalization was done by positive and negative controls.
Firefly luciferase activity was determined by the SteadyGlo Luciferase Assay System (Promega, #2520).

Data set [2] deals with AHR-regulated gene CYP1A1. As to the kind of experiment: In vitro assay 3: AHR-regulated CYP1A1 expression in human cell line (U937, qPCR). For orientation: Quantitative PCR measures a nucleic acid by following its amplification.
Data set [3] has as its target T1, AHR. As to the kind of experiment: In vitro assay 1: antagonism in human cell line (transactivation assay, kynurenic acid prestimulated). The settings on record: Assay 1: AHR-luc Hum Antagonism IC50 [M], 150 μM kynurenic acid, 20 hours, firefly luciferase.
[4] abbreviates: Assay 2: AHR-luc Hum Agonism IC50 [M], no kynurenic acid, 20 hours, firefly luciferase.
Where [5] appears, read: Homo sapiens, U-937, 6 h, read-out: Assay 3: Hum CYP1A1 Antagonism IC50 [M], U937 cells, 200 μM KA, 6 hours, qPCR.
[6] abbreviates: read-out: Assay 3: Hum CYP1A1 Antagonism IC50, U937 cells, 200 μM KA, 6 hours, qPCR.
Where [7] appears, read: read-out: Assay 2: AHR-luc Hum Agonism IC50, no kynurenic acid, 20 hours, firefly luciferase.

For the molecule `O=C(NC(CO)CF)c1cc(-c2ccc(Cl)cc2)nn(-c2cccc(F)c2)c1=O` (racemic) [Example 323, 6-(4-chlorophenyl)-N-[(2RS)-1-fluoro-3-hydroxypropan-2-yl]-2-(3-fluorophenyl)-3-oxo-2,3-dihydropyridazine-4-carboxamide], the IC50 – broadly, the concentration that inhibits the measured activity by half – is > 2e-05 M against AHR [1] (setting [4]), 3.2e-08 M in data set [2] (setting [5]) and 2.43e-08 M against AHR [3].
As for `O=C(N[C@H]1CC[C@@H]1O)c1cc(-c2ccc(Cl)cc2)nn(-c2cccc(F)c2)c1=O` (racemic) [Example 348, 6-(4-chlorophenyl)-2-(3-fluorophenyl)-N-(trans-2-hydroxycyclobutyl)-3-oxo-2,3-dihydropyridazine-4-carboxamide], the IC50 is > 2e-05 M on AHR [1] (setting [4]), 1.37e-07 M in data set [2] (setting [5]) and 5.11e-08 M against AHR [3].
In the same order, the values of `N#CC(CO)NC(=O)c1cc(-c2ccc(Cl)cc2)nn(-c2cccc(F)c2)c1=O` (racemic) [Example 371, 6-(4-chlorophenyl)-N-[(1RS)-1-cyano-2-hydroxyethyl]-2-(3-fluorophenyl)-3-oxo-2,3-dihydropyridazine-4-carboxamide] are > 2e-05 M, 5.69e-08 M and 1.63e-08 M.
For `O=C(N[C@@H]1CCCC[C@@H]1O)c1cc(-c2ccc(Cl)cc2)nn(-c2cccc(F)c2)c1=O` (relative stereo) [Example 103, 6-(4-Chlorophenyl)-2-(3-fluorophenyl)-N-(cis-2-hydroxycyclohexyl)-3-oxo-2,3-dihydropyridazine-4-carboxamide], the IC50 against AHR [1] (setting [4]) was > 2e-05 M; in data set [2] (setting [5]), 4.47e-09 M; on AHR [3] it was 1.59e-08 M.
As for `COc1ccc(-c2cc(C(=O)N[C@@H](C)[C@H](C)O)c(=O)n(-c3cccc(F)c3)n2)cc1` (relative stereo) [Example 116, rel-2-(3-Fluorophenyl)-N-[(2S,3S)-3-hydroxybutan-2-yl]-6-(4-methoxyphenyl)-3-oxo-2,3-dihydropyridazine-4-carboxamide], the values for the IC50 (at AHR [1] (setting [4]); in data set [2] (setting [5]); against AHR [3]) were > 2e-05 M, 9.69e-08 M and 2.9e-08 M, respectively.
In the same order, the values of `O=C(N[C@H]1CCC[C@@H]1O)c1cc(-c2ccc(Cl)cc2)nn(-c2cccc(F)c2)c1=O` (relative stereo) [Example 123, 6-(4-Chlorophenyl)-2-(3-fluorophenyl)-N-(trans-2-hydroxycyclopentyl)-3-oxo-2,3-dihydropyridazine-4-carboxamide] are > 2e-05 M, 9.77e-08 M and 3.63e-08 M.
Turning to `O=C(N[C@@H]1CC[C@@H]1O)c1cc(-c2ccc(Cl)cc2)nn(-c2cccc(F)c2)c1=O` (relative stereo) [Example 357], the IC50 is > 2e-05 M on AHR [1] (setting [4]), 2.7e-08 M in data set [2] (setting [5]) and 2.13e-08 M on AHR [3].
`O=C(NCC(O)C(F)(F)F)c1cc(-c2ccc(Cl)cc2)nn(-c2cccc(F)c2)c1=O` (single isomer, unassigned) [Example 26, 6-(4-Chlorophenyl)-2-(3-fluorophenyl)-3-oxo-N-(3,3,3-trifluoro-2-hydroxypropyl)-2,3-dihydropyridazine-4-carboxamide]: the results for the IC50 (on AHR [1] (setting [4]); in data set [2] (setting [6]); against AHR [3]) were > 2e-05 M, 3.52e-08 M and 1.84e-08 M, respectively.
`O=C(NCC(O)C(F)(F)F)c1cc(-c2ccc(Cl)cc2)nn(-c2cccc(F)c2)c1=O` (single isomer, unassigned) [Example 27, 6-(4-Chlorophenyl)-2-(3-fluorophenyl)-3-oxo-N-(3,3,3-trifluoro-2-hydroxypropyl)-2,3-dihydropyridazine-4-carboxamide]: the results for the IC50 (on AHR [1] (setting [7]); in data set [2] (setting [6]); against AHR [3]) were > 2e-05 M, 2.44e-07 M and 1.06e-07 M, respectively.
With `CC(C)C(O)CNC(=O)c1cc(-c2ccc(Cl)cc2)nn(-c2cccc(F)c2)c1=O` (single isomer, unassigned) [Example 29, 6-(4-Chlorophenyl)-2-(3-fluorophenyl)-N-(2-hydroxy-3-methylbutyl]-3-oxo-2,3-dihydropyridazine-4-carboxamide], the 50% inhibitory concentration (IC50) against AHR [1] (setting [4]) was > 2e-05 M; in data set [2] (setting [5]), 1.55e-07 M; at AHR [3], 9.15e-08 M.
With `CC(C)C(O)CNC(=O)c1cc(-c2ccc(Cl)cc2)nn(-c2cccc(F)c2)c1=O` (single isomer, unassigned) [Example 30, 6-(4-Chlorophenyl)-2-(3-fluorophenyl)-N-(2-hydroxy-3-methylbutyl]-3-oxo-2,3-dihydropyridazine-4-carboxamide], the results for the IC50 (at AHR [1] (setting [7]); in data set [2] (setting [6]); at AHR [3]) were > 2e-05 M, 1.77e-07 M and 1.33e-07 M, respectively.
Turning to `O=C(NCC(O)C(F)(F)F)c1cc(-c2ccc(Cl)cc2)nn(-c2cc(F)cc(F)c2)c1=O` (single isomer, unassigned) [Example 45, 6-(4-Chlorophenyl)-2-(3,5-difluorophenyl)-3-oxo-N-(3,3,3-trifluoro-2-hydroxypropyl)-2,3-dihydropyridazine-4-carboxamide], the IC50 was > 2e-05 M against AHR [1] (setting [4]), 1.18e-08 M in data set [2] (setting [5]) and 1.02e-08 M at AHR [3].
Turning to `CC(C)C(O)CNC(=O)c1cc(-c2ccc(Cl)cc2)nn(-c2cc(F)cc(F)c2)c1=O` (single isomer, unassigned) [Example 49, 6-(4-Chlorophenyl)-2-(3,5-difluorophenyl)-N-(2-hydroxy-3-methylbutyl)-3-oxo-2,3-dihydropyridazine-4-carboxamide], the IC50 on AHR [1] (setting [4]) was > 2e-05 M; in data set [2] (setting [6]), 4.92e-08 M; against AHR [3] it was 3.42e-08 M.
Regarding `CC(C)C(O)CNC(=O)c1cc(-c2ccc(Cl)cc2)nn(-c2cc(F)cc(F)c2)c1=O` (single isomer, unassigned) [Example 50, 6-(4-Chlorophenyl)-2-(3,5-difluorophenyl)-N-(2-hydroxy-3-methylbutyl)-3-oxo-2,3-dihydropyridazine-4-carboxamide], the IC50 on AHR [1] (setting [7]) is > 2e-05 M; in data set [2] (setting [6]) it was 1.51e-07 M; against AHR [3], 5.8e-08 M.
Turning to `Cc1ccc(-c2cc(C(=O)NCC(O)C(C)C)c(=O)n(-c3cc(F)cc(F)c3)n2)cc1` (single isomer, unassigned) [Example 57, 2-(3,5-Difluorophenyl)-N-(2-hydroxy-3-methylbutyl)-6-(4-methylphenyl)-3-oxo-2,3-dihydropyridazine-4-carboxamide], the half-maximal inhibitory concentration (IC50) is > 2e-05 M against AHR [1] (setting [4]), 3.83e-08 M in data set [2] (setting [6]) and 3.49e-08 M against AHR [3].
Take `Cc1ccc(-c2cc(C(=O)NCC(O)C(C)C)c(=O)n(-c3cc(F)cc(F)c3)n2)cc1` (single isomer, unassigned) [Example 58, 2-(3,5-Difluorophenyl)-N-(2-hydroxy-3-methylbutyl)-6-(4-methylphenyl)-3-oxo-2,3-dihydropyridazine-4-carboxamide]: the IC50 at AHR [1] (setting [7]) is > 2e-05 M; in data set [2] (setting [6]), 1.34e-07 M; on AHR [3] it was 4.28e-08 M.
Regarding `O=C(NCC(O)C(F)(F)F)c1cc(-c2ccc(C(F)F)cc2)nn(-c2cccc(F)c2)c1=O` (single isomer, unassigned) [Example 95, 6-[4-(Difluoromethyl)phenyl]-2-(3-fluorophenyl)-3-oxo-N-(3,3,3-trifluoro-2-hydroxypropyl)-2,3-dihydropyridazine-4-carboxamide], the half-inhibitory concentration (IC50) on AHR [1] (setting [4]) is > 2e-05 M; in data set [2] (setting [6]), 7.63e-09 M; against AHR [3], 6.77e-09 M.
As to `O=C(NCC(O)C(F)(F)F)c1cc(-c2ccc(C(F)F)cc2)nn(-c2cccc(F)c2)c1=O` (single isomer, unassigned) [Example 96, 6-[4-(Difluoromethyl)phenyl]-2-(3-fluorophenyl)-3-oxo-N-(3,3,3-trifluoro-2-hydroxypropyl)-2,3-dihydropyridazine-4-carboxamide], the IC50 on AHR [1] (setting [7]) was > 2e-05 M; in data set [2] (setting [6]), 4.03e-08 M; on AHR [3], 2.92e-08 M.
`COc1ccc(-c2cc(C(=O)NC(CO)C(F)(F)F)c(=O)n(-c3cccc(F)c3)n2)cc1` (single isomer, unassigned) [Example 101, 2-(3-fluorophenyl)-6-(4-methoxyphenyl)-3-oxo-N-(1,1,1-trifluoro-3-hydroxypropan-2-yl)-2,3-dihydropyridazine-4-carboxamide]: the IC50 on AHR [1] (setting [4]) is > 2e-05 M; in data set [2] (setting [6]) it was 1.88e-08 M; against AHR [3], 1.24e-08 M.

Values taken from patent publication US11040035B2, “3-oxo-2,6-diphenyl-2,3-dihydropyridazine-4-carboxamides” (BAYER PHARMA AKTIENGESELLSCHAFT, priority 2016, dated 2021).
